This is an account of results in patent US12275685B2, “Oligo-benzamide analogs and their use in cancer treatment” (Board of Regents, The University of Texas System, priority 2018, dated 2025).

One data set concerns D2A1 xenografts. Briefly: D2A1 syngeneic tumor model. It is filed as in vivo, mice. The settings on record: 10 mg/kg daily. As for the experimental part:
(§1) FIGS. 35A-P: ERX-41 is potent against TNBC in vivo. (FIG. 35A) Following establishment of subcutaneous MDA-MB-231 xenograft tumors (200 mm^3), 10 mg/kg single dose ERX-41 was administered either by oral or intraperitoneal route. The tumor was harvested 0, 0, 5, 1, 5, 3, 6 and 24 h after drug administration and the drug levels assayed by LC-MS/MS and graphed. (FIGS. 35B-E) Following establishment of MDA-MB-231 xenografts in mammary fat pad in vivo (100 mm^3 size), daily administration of 10 mg/kg ERX-41 or vehicle control (N=8 each group) was initiated. Tumor volumes were measured using digital calipers and graphed (FIG. 35B). Tumor weights (FIG. 35C), body weights (FIG. 35D) and extirpated tumors (FIG. 35E) at end of study are also shown. (FIGS. 35F-H) Following establishment of D2A1 syngeneic xenografts in mammary fat pad in vivo (100 mm^3 size), daily administration of 10 mg/kg ERX-41 or vehicle control (N=8 each group) was initiated. Tumor volumes were measured using digital calipers and graphed (FIG. 35F) along with tumor weights (FIG. 35G) and body weights (FIG. 35H). (FIGS. 35I-P) Effect of ERX-41 on the growth (FIG. 351, FIG. 35K, FIG. 35M, FIG. 35O) and tumor weights (FIG. 35J, FIG. 35L, FIG. 35N, FIG. 35P) of four distinct TNBC PDXs compared to vehicle. *p<0.05. **p<0.01; ***p<0.001. […]

In data set [1] the test system is MDA-MB-231 TNBC xenografts. Briefly: MDA-MB-231 TNBC xenografts. The class given is in vivo, mice. Particulars: oral 10 mg/kg/day. As for the experimental part:
FIGS. 5A-5C show the effect of TK41 on triple negative breast cancer xenograft tumors. MDA-MB-231 (TNBC; n=10) xenografts were established in nude mice and treated with either vehicle (circle markers) or 10 mg/kg/day TK41 (square markers) administered as an oral gavage in Captisol®. Comparison of mice body weights is shown in bar graphs (FIG. 5A). Photographs of individual tumors at necropsy supports the effect of TK41 on TNBC. *p<0.05; **** p<0.001.
as §1, with “(FIGS. 35F-H) Following establishment of D2A1 syngeneic xenografts in mammary fat pad in vivo (100 mm^3 size), daily administration of 10 mg/kg ERX-41 or vehicle control (N=8 each group) was initiated.” left out, “35H).” for “35H). (FIGS. 35I-P) Effect of ERX-41 on the growth (FIG. 351, FIG. 35K, FIG. 35M, FIG. 35O) and tumor weights (FIG. 35J, FIG. 35L, FIG. 35N, FIG. 35P) of four distinct TNBC PDXs compared to vehicle. *p<0.05. **p<0.01; ***p<0.001.”

The subject of a further data set is TNBC cells. Briefly: ER stress induction in TNBC cells (electron microscopy, western blots). It is filed as cell-based. As for the experimental part:
FIGS. 36A-H: ERX-41 induces ER stress in TNBC. (FIGS. 36A-C) Volcano plots show the relative effect of 4 h treatment of 1 μM ERX-41 compared to vehicle in MDA-MB-231 (FIG. 36A), BT-549 (FIG. 36B) TNBC and HMEC (FIG. 36C) cell lines. (FIG. 36D) Gene ontology analyses show the top regulated pathways. (FIG. 36E) Heatmap of the top ER stress and UPR genes in these three TNBC cell lines after 2 h and 4 h treatment with 1 μM ERX-41 treatment. […] (FIG. 36G) Time course of the effect of 1 μM ERX-41 on the mRNA expression of canonical ER stress genes, HSPAS and DDIT3 and UPR stress sensor-sXBP1 in MDA-MB-231, BT-549 and HMEC cells.
The basal level of expression of endoplasmic reticulum stress and unfolded protein response correlates with TK41 activity (FIG. 28). Modulation of the level of these stress proteins affects the activity of TK41. Thus, the basal level of expression of endoplasmic reticulum stress and unfolded protein response proteins may serve as a biomarker to predict response to TK41. […] Without wishing to be bound by any particular theory, the mechanism of action of TK41 may operate comprise targeting either ER or TLX and inducing endoplasmic reticulum stress, subsequent apoptosis, and blocking autophagic fusion (FIG. 30).
ERX-41 induces endoplasmic reticulum stress in TNBC. To understand the mechanism of action of ERX-41 in TNBC, the inventors performed unbiased RNA sequencing studies in three TNBC (SUM-159, MDA-MB-231, and BT549) and normal HMEC cell lines (FIGS. 36A-C). […] Heatmaps show the induction of ER stress and UPR genes in these three TNBC cell lines (FIG. 36E). Evaluation of ER stress induction was then performed with ultrastructural studies using electron microscopy (EM) studies.

A short description of data set [2]: Tolerability of ERX-41 in mice. The class given is in vivo. The settings on record: daily oral or intraperitoneal, up to 200 mg/kg. The protocol:
Additionally, ERX-41 was detectable within 1.5 h in established subcutaneous MDA-MB-231 xenograft tumors after oral or intraperitoneal administration (FIG. 35A). […] ERX-41 decreased tumor growth, as shown by extirpated tumor sizes at the end of study (FIG. 35C and FIG. 35E). […] The inventors validated the activity of ERX-41 in four distinct TNBC PDXs established in the mammary fat pad (FIGS. 35I-P).

Turning to `CC(C)COc1cc(C(=O)Nc2ccc(C(=O)N[C@H]3CC[C@H](C)CC3)cc2OCC(C)C)ccc1NC(=O)c1ccc([N+](=O)[O-])c(OCCO)c1` [TK41], the “growth of D2A1 xenografts” value in the data set on D2A1 xenografts is given as “significantly reduce the growth”. Moreover, in data set [1], the “growth of MDA-MB-231 xenografts” value is “significantly decreased the growth” and the mouse body weights result was “no alterations in mouse body weights”. Besides, the “induction of ER stress and UPR proteins (p-PERK, IRE1a, eiF2a, CHOP)” value in the data set with TNBC cells (1 μM, western blotting, TNBC cells) was “induces ER stress and downstream UPR pathways”. In the data set with TNBC cells (TNBC MD-MBA-231 cells), the “induction of endoplasmic reticulum stress” value was “induce endoplasmic reticulum stress”. Also, in the data set on TNBC cells (within 4 h of treatment, TNBC cells), the “dilation of the ER by electron microscopy” value is “induced dramatic dilation of the ER”. For the same molecule, in data set [2], the tolerability entry was “well tolerated”.
